Like-named read-outs stand apart in the source and are kept apart here.
Legend:
[1] = test system: intracellular amastigote form of Leishmania amazonensis; assay: Antiamastigote activity assay (infected peritoneal macrophages, infection index); format: cell-based; conditions: Macrophage, 72 h, L. amazonensis in murine macrophages, mean ± SD from three independent experiments, read-out: Intracellular Amastigotes IC50 (µM/72 h)
Protocol: Resident peritoneal macrophages were seeded in RPMI medium (Sigma-Aldrich) at 1 × 10^6 cells/mL (0.4 mL/well) on Lab-Tek eight-chamber slides (Nunc) and incubated at 37 °C in 5% CO2 for 1 h. After this period, nonadherent cells were removed, and the adherent macrophages were co-cultured with L. amazonensis promastigotes at a 5:1 parasite-to-cell ratio. After 4 h, the monolayers were washed to eliminate free parasites. Cells were then treated with different concentrations of the compounds and incubated for 72 h at 37 °C in 5% CO2. Following incubation, the slides were stained using the Instant Prov hematological dye (Newprov, Curitiba, Brazil), and antileishmanial activity was assessed microscopically. Amastigote numbers were determined by counting at least 100 macrophages per sample, and the results were expressed as an infection index (II), calculated as: II = (percentage of infected cells) × (number of amastigotes/total macrophages). Dose–response curves for the antiamastigote activity were generated using nonlinear regression in GraphPad Prism 5.0, and IC50 values were calculated.

[2] = Cytotoxicity assay (resazurin); format: cell-based; conditions: mouse, murine peritoneal macrophages, 0–200 µM tested, mean ± SD from three independent experiments
Protocol: Murine peritoneal macrophages were collected by flushing the peritoneal cavity with 5 mL of RPMI 1640 medium containing 10% HIFCS, 2 mM L-glutamine, 1 mM pyruvate, 100 μg/mL streptomycin, and 100 U/mL penicillin. The macrophage suspension was adjusted to 1.0 × 10^6 cells/mL and then plated in triplicate in 96-well plates (Falcon Co., Franklin Lakes, NJ, USA). Cultures were incubated at 37 °C in a 5% CO2 environment for 1 h. Nonadherent cells were subsequently removed, and the remaining cells were exposed to varying concentrations of test compounds (0–200 μM) for 72 h. Viability was assessed using a resazurin assay, and the concentration that caused 50% cytotoxicity (CC50) was determined using logarithmic regression analysis with GraphPrism 5 software.

[3] = test system: Leishmania amazonensis promastigotes, strain MHOM/BR/77/LTB0016; assay: Antipromastigote activity assay (resazurin); format: cell-based; conditions: 72 h, mean ± SD from three independent experiments, read-out: Activity IC50 (µM/72 h), promastigote form of L. amazonensis
Protocol: Initially, compounds 14 to 25 were subjected to preliminary in vitro screening against Leishmania amazonensis promastigotes, strain MHOM/BR/77/LTB0016. The 50% growth inhibitory concentration (IC50) was measured after 72 h of cultivation with each compound using a resazurin assay conducted in independent triplicate experiments. […] Leishmania amazonensis (MHOM/BR/77/LTB0016) was cultured as promastigotes at 26 °C using Schneider’s insect medium (Sigma-Aldrich, St Louis, MO, USA), supplemented with 10% heat-inactivated fetal calf serum (HIFCS), 100 μg/mL streptomycin, and 100 U/mL penicillin. The parasites were sustained up to the 10th passage, after which fresh cultures were derived from infected host animals. L. amazonensis promastigotes were cultured in Schneider’s insect medium with 10% HIFCS, as described above, with or without various concentrations of test substances. The initial cell density was 1.0 × 10^6 cells/mL, and the culture was kept at 26 °C for 72 h. Resazurin reduction was used to evaluate the cell viability. The concentration required to inhibit 50% of the promastigote activity (IC50) was calculated using logarithmic regression analysis via GraphPrism 5 software.

[4] = test system: intracellular amastigote form of Leishmania amazonensis; set-up: method as in PMID 21555166, PMID 20833057; conditions: previously reported HIT; read-out: IC50 for the intracellular amastigote form of L. amazonensis; cited from earlier work

Row | SMILES | IC50 [1] | IC50 [3] | CC50 at 72 h [2] | IC50 [4]
1 | CC1(Cc2ccccc2)CC(C(=O)Nc2ccc(Br)cn2)=C(c2ccc(C(N)=NO)cc2)O1 (stereo not shown) [Compound 14, 5-Benzyl-N-(5-bromopyridin-2-yl)-2-(4-(N′-hydroxycarbamimidoyl)phenyl)-5-methyl-4,5-dihydrofuran-3-carboxamide] | 0.5 ± 0.15 µM | 15 ± 1.03 µM | 171.5 ± 1.19 µM | 
2 | CC1(Cc2ccccc2)CC(C(=O)Nc2ccc(Cl)cn2)=C(c2ccc(C(N)=NO)cc2)O1 (stereo not shown) [Compound 15, 5-Benzyl-N-(5-chloropyridin-2-yl)-2-(4-(N′-hydroxycarbamimidoyl)phenyl)-5-methyl-4,5-dihydrofuran-3-carboxamide] | 0.6 ± 0.2 µM | 16 ± 1.03 µM | > 200 µM | 
3 | Cc1ccc(NC(=O)C2=C(c3ccc(C(N)=NO)cc3)OC(C)(Cc3ccccc3)C2)nc1 (stereo not shown) [Compound 16, 5-Benzyl-2-(4-(N′-hydroxycarbamimidoyl)phenyl)-5-methyl-N-(5-methylpyridin-2-yl)-4,5-dihydrofuran-3-carboxamide] | 0.3 ± 0.07 µM | 17 ± 1.02 µM | > 200 µM | 
4 | CC1(Cc2ccccc2)CC(C(=O)Nc2ccccn2)=C(c2ccc(C(N)=NO)cc2)O1 (stereo not shown) [Compound 17, 5-Benzyl-2-(4-(N′-hydroxycarbamimidoyl)phenyl)-5-methyl-N-(pyridin-2-yl)-4,5-dihydrofuran-3-carboxamide] |  | 22.4 ± 1.02 µM |  | 
5 | CC1(Cc2ccccc2)CC(C(=O)Nc2ccncc2)=C(c2ccc(C(N)=NO)cc2)O1 (stereo not shown) [Compound 18, 5-Benzyl-2-(4-(N′-hydroxycarbamimidoyl)phenyl)-5-methyl-N-(pyridin-4-yl)-4,5-dihydrofuran-3-carboxamide] |  | 23.5 ± 1.04 µM |  | 
6 | CC1(Cc2ccccc2)CC(C(=O)Nc2ccccc2)=C(c2ccc(C(N)=NO)cc2)O1 (stereo not shown) [Compound 19, 5-Benzyl-2-(4-(N′-hydroxycarbamimidoyl)phenyl)-5-methyl-N-phenyl-4,5-dihydrofuran-3-carboxamide] |  | 23.8 ± 1.02 µM |  | 
7 | CC1(Cc2ccccc2)CC(C(=O)Nc2ccc(F)cc2)=C(c2ccc(C(N)=NO)cc2)O1 (stereo not shown) [Compound 20, 5-Benzyl-N-(4-fluorophenyl)-2-(4-(N′-hydroxycarbamimidoyl)phenyl)-5-methyl-4,5-dihydrofuran-3-carboxamide] |  | 23.8 ± 1.02 µM |  | 
8 | CC1(Cc2ccccc2)CC(C(=O)NCc2ccc(C(F)(F)F)cc2)=C(c2ccc(C(N)=NO)cc2)O1 (stereo not shown) [Compound 21, 5-Benzyl-2-(4-(N′-hydroxycarbamimidoyl)phenyl)-5-methyl-N-(4-(trifluoromethyl)benzyl)-4,5-dihydrofuran-3-carboxamide] |  | 26.4 ± 1.02 µM |  | 
9 | CC1(Cc2ccccc2)CC(S(=O)(=O)c2ccc(F)cc2)=C(c2ccc(C(N)=NO)cc2)O1 (stereo not shown) [HIT, 4-(5-benzyl-3-((4-fluorophenyl)sulfonyl)-5-methyl-4,5-dihydrofuran-2-yl)-N′-hydroxybenzimidamide] |  |  |  | 7.9 ± 1.1 µM

Further lines, with some results ahead:

Row | IC50 [1] | IC50 [3] | SMILES | CC50 at 72 h [2] | IC50 [4]
10 |  | 29.9 ± 1.02 µM | CC1(Cc2ccccc2)CC(C(=O)Nc2cccnn2)=C(c2ccc(C(N)=NO)cc2)O1 (stereo not shown) [Compound 22, 5-Benzyl-2-(4-(N′-hydroxycarbamimidoyl)phenyl)-5-methyl-N-(pyridazin-3-yl)-4,5-dihydrofuran-3-carboxamide] |  | 
11 |  | 36.4 ± 1.03 µM | CC1(Cc2ccccc2)CC(C(=O)Nc2ccc(Cl)nn2)=C(c2ccc(C(N)=NO)cc2)O1 (stereo not shown) [Compound 23, 5-Benzyl-N-(6-chloropyridazin-3-yl)-2-(4-(N′-hydroxycarbamimidoyl)phenyl)-5-methyl-4,5-dihydrofuran-3-carboxamide] |  | 
12 |  | 39.4 ± 1.02 µM | CC1(Cc2ccccc2)CC(C(=O)Nc2cnccn2)=C(c2ccc(C(N)=NO)cc2)O1 (stereo not shown) [Compound 24, 5-Benzyl-2-(4-(N′-hydroxycarbamimidoyl)phenyl)-5-methyl-N-(pyrazin-2-yl)-4,5-dihydrofuran-3-carboxamide] |  | 
13 |  | 52.5 ± 1.03 µM | Cc1cc(NC(=O)C2=C(c3ccc(C(N)=NO)cc3)OC(C)(Cc3ccccc3)C2)nn1C (stereo not shown) [Compound 25, 5-Benzyl-N-(1,5-dimethyl-1H-pyrazol-3-yl)-2-(4-(N′-hydroxycarbamimidoyl)phenyl)-5-methyl-4,5-dihydrofuran-3-carboxamide] |  | 

— paper PMC11597885, “Enhancing Antileishmanial Activity of Amidoxime-Based Compounds Bearing a 4,5-Dihydrofuran Scaffold: In Vitro Screening Against Leishmania amazonensis” (Molecules, 2024)
